Results: patent publication US8071631B2, “Small molecule inhibitors of kynurenine-3-monooxygenase” (The J. David Gladstone Institutes, A Testamentary Trust …, priority 2006, dated 2011)

tested on: kynurenine-3-monooxygenase (KMO); assay: KMO inhibition, radiometric assay per Erickson et al. (release of 3H2O from L-[3,5-3H]-kynurenine); format: biochemical; details: compound at 10 μM
Procedure: The KMO inhibiting activities of the compounds of the present invention were evaluated using standard methods. See Erickson et al., A Radiometric Assay for Kynurenine 3-Hydroxylase Based on the Release of ^3H2O During Hydroxylation of L-[3,5-^3H]-Kynurenine, Anal. Biochem. 1992, 205, 257-262, the disclosure of which is hereby incorporated by reference.
The IC50 value is the half maximal inhibitory concentration and represents the concentration of an inhibitor that is required for 50% inhibition of an enzyme activity and the percent inhibition measures the amount of enzyme activity inhibited at a given concentration of compound. If the administered compound is a prodrug then the prodrug may not inhibit KMO until it has metabolized appropriately.

Going from `COc1ccc(-c2cnc(NS(=O)(=O)c3ccc(OC)c(OC)c3)nc2)cc1` [Compound A23, 3,4-dimethoxy-N-[5-(4-methoxyphenyl)-pyrimidine-2-yl]benzenesulfonamide] to `COc1ccc(S(=O)(=O)Nc2ccc(-c3ccccc3)cn2)cc1OC` [Compound A25, 3,4-dimethoxy-N-[5-(phenyl)-pyridine-2-yl]benzenesulfonamide], the “% inhibition at 10 μM” value rises from 17.5% to 24.8%.

First: COc1ccc(S(=O)(=O)Nc2nnc(-c3ccccc3)s2)cc1OC [Compound A5, 3,4-dimethoxy-N-[5-(phenyl)-1,3,4-thiadiazol-2-yl]benzenesulfonamide]
Second: COc1ccc(S(=O)(=O)Nc2nc(-c3ccccc3)ns2)cc1OC [Compound A1, 3,4-dimethoxy-N-[3-(phenyl)-1,2,4-thiadiazol-5-yl]benzenesulfonamide]
The “% inhibition at 10 μM” value of the first is lower: 60.03% for the first, 73.61% for the second.

First: Cc1ccc(S(=O)(=O)Nc2cc(-c3ccccc3)no2)cc1 [Compound A14, 4-methyl-N-[3-(phenyl)-isoxazol-5-yl]benzenesulfonamide]
Second: COc1ccc(S(=O)(=O)Nc2cc(-c3ccccc3)no2)cc1OC [Compound A13, 3,4-dimethoxy-N-[3-(phenyl)-isoxazol-5-yl]benzenesulfonamide]
The “% inhibition at 10 μM” value of the first is higher: 30.74% for the first, 17.82% for the second.

Compared with `Cc1ccc(S(=O)(=O)Nc2nnc(-c3ccccc3)s2)cc1` [Compound A6, 4-methyl-N-[5-(phenyl)-1,3,4-thiadiazol-2-yl]benzenesulfonamide], `Cc1ccc(S(=O)(=O)Nc2nc(-c3ccccc3)ns2)cc1` [Compound A2, 4-methyl-N-[3-(phenyl)-1,2,4-thiadiazol-5-yl]benzenesulfonamide] is higher in “% inhibition at 10 μM” value: 71.59% for the first, 77.9% for the second.

Going from `COc1ccc(S(=O)(=O)Nc2nsc(-c3ccc(Cl)cc3)n2)cc1OC` [Compound A19, 3,4-dimethoxy-N-[5-(4-chlorophenyl)-1,2,4-thiadiazole-3-yl]benzenesulfonamide] to `COc1ccc(S(=O)(=O)[N-]c2cccc(-c3ccccc3)c2)cc1OC.[K+]` [Compound A22, Potassium 3,4-dimethoxy-N-[biphenyl-3-yl]benzenesulfonamide], the “% inhibition at 10 μM” value falls from 68.6% to 19.57%.
